For this assay, the target named is T1, Full-length, GST-tagged, human CaMKIIδ (Homo sapiens, UniProt Q13557).
T1 construct: Full-Length, Glutathione-S-Transferase(GST)-Tagged, Human CaMKIIδ was purchased from Carna Biosciences; purchased Carna Biosciences 02-111
The assay can be described thus: CaMKIIδ binding assay (TR-FRET with BODIPY-labeled probe ligand). Summed up: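 TR-FRET probe-displacement binding: 0.5 nM GST-CaMKIIδ with 10 μg/mL calmodulin, 1 mM CaCl2, 0.21 nM Tb-anti-GST Ab and 300 nM BODIPY probe in HEPES pH 7.6 buffer. Eight-point 4-fold dilutions, 1 hr at room temperature. IC50 from logistic fit; 100% inhibition defined by 3 μM parent compound.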
(In TR-FRET formats the signal depends on donor and acceptor labels being close together.)

Setting [1] is: Table 2, CaMKIIδ binding assay, activity given as class A/B/C.
The mark [2] stands for this setting: CaMKIIδ binding assay, activity class per Table 2.
Where [3] appears, read: CaMKIIδ binding assay, results of Table 2.
Setting [4] is: Table 2, activity class for CaMKIIδ.

Each structure is given as a SMILES string.

T1 sequence (Q13557 1-478 isoform Q13557-12): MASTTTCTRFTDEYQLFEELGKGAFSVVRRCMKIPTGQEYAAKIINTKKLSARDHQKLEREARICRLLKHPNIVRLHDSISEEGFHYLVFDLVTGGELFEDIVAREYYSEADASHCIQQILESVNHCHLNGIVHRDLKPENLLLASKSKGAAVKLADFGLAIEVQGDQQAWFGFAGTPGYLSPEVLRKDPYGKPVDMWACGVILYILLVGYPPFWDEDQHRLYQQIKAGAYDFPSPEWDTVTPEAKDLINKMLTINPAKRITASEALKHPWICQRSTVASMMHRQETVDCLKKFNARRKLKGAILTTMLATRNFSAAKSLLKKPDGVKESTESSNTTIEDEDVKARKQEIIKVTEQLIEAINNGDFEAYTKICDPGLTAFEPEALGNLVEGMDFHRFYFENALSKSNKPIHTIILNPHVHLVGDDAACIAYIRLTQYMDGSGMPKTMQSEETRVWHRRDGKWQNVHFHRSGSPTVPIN

As a reminder, the IC50 is the point on the concentration scale where inhibition reaches its midpoint. Lower therefore signals greater potency. `C[C@@H](Cn1cc(F)cn1)Oc1cc(-c2cnc(Nc3cn([C@H]4CC[C@H](N5CCOCC5)CC4)nc3OCC(F)(F)F)nc2)ccc1C#N` [Example 830, 2-(((S)-1-(4-fluoro-1H-pyrazol-1-yl)propan-2-yl)oxy)-4-(2-((1-(trans-4-morpholinocyclohexyl)-3-(2,2,2-trifluoroethoxy)-1H-pyrazol-4-yl)amino)pyrimidin-5-yl)benzonitrile] returned a 50% inhibitory concentration (IC50) under setting [1] below 10 nM.

In the case of `COc1cccc(Cn2cc(Nc3ncc(-c4ccc(Cl)c(O[C@@H](C)Cn5cnnn5)c4)cn3)c(OCC(F)(F)F)n2)n1` [Example 928, (S)-5-(3-((1-(1H-tetrazol-1-yl)propan-2-yl)oxy)-4-chlorophenyl)-N-(1-((6-methoxypyridin-2-yl)methyl)-3-(2,2,2-trifluoroethoxy)-1H-pyrazol-4-yl)pyrimidin-2-amine], the concentration for half-maximal inhibition (IC50) under setting [2] was 10 to 100 nM.

With `C[C@@H](Cn1cnnn1)Oc1cc(-c2cnc(Nc3cn(C4CCN(C5CCOCC5)CC4)nc3C3CC3)nc2)ccc1C#N` [Example 546, (S)-2-((1-(1H-tetrazol-1-yl)propan-2-yl)oxy)-4-(2-((3-cyclopropyl-1-(1-(tetrahydro-2H-pyran-4-yl)piperidin-4-yl)-1H-pyrazol-4-yl)amino)pyrimidin-5-yl)benzonitrile], the concentration for half-maximal inhibition (IC50) under setting [3] is below 10 nM. Take `C[C@@H](Cn1cnnn1)Oc1cc(-c2cnc(Nc3cc4c(cc3C3CC3)CCN(C3COC3)C4)nc2)ccc1C#N` [Example 524, (S)-2-((1-(1H-tetrazol-1-yl)propan-2-yl)oxy)-4-(2-((6-cyclopropyl-2-(oxetan-3-yl)-1,2,3,4-tetrahydroisoquinolin-7-yl)amino)pyrimidin-5-yl)benzonitrile]: the IC50 under setting [3] is 10 to 100 nM. With `C[C@@H](Cn1cnnn1)Oc1cc(-c2cnc(Nc3cn(CC4CCCO4)nc3C(F)(F)F)nc2)ccc1Cl` (stereo partly drawn) [Example 710, 5-(3-(((S)-1-(1H-tetrazol-1-yl)propan-2-yl)oxy)-4-chlorophenyl)-N-(1-((tetrahydrofuran-2-yl)methyl)-3-(trifluoromethyl)-1H-pyrazol-4-yl)pyrimidin-2-amine], under setting [4], the concentration for half-maximal inhibition (IC50) lay in the range of 10 to 100 nM. `C[C@@H](Cn1cnnn1)Oc1cc(-c2cnc(Nc3cc(-c4ccccc4)nn3C)nc2)ccc1Cl` [Example 719, (S)-5-(3-((1-(1H-tetrazol-1-yl)propan-2-yl)oxy)-4-chlorophenyl)-N-(1-methyl-3-phenyl-1H-pyrazol-5-yl)pyrimidin-2-amine] gave an IC50 under setting [4] of 10 to 100 nM. `CCC1(N2CC3(CC(n4cc(Nc5ncc(-c6ccc(Cl)c(O[C@@H](C)Cn7cnnn7)c6)cn5)c(OCC(F)(F)F)n4)C3)C2)CCOCC1` [Example 955, (S)-5-(3-((1-(1H-tetrazol-1-yl)propan-2-yl)oxy)-4-chlorophenyl)-N-(1-(2-(4-ethyltetrahydro-2H-pyran-4-yl)-2-azaspiro[3.3]heptan-6-yl)-3-(2,2,2-trifluoroethoxy)-1H-pyrazol-4-yl)pyrimidin-2-amine] registered an IC50 under setting [2] below 10 nM. Turning to `COc1cc2c(cc1Nc1ncc(-c3ccc(Cl)c(O[C@@H](C)Cn4cnnn4)c3)cn1)N(C(=O)CN1CCOCC1)CC2` [Example 498, (S)-1-(6-((5-(3-((1-(1H-tetrazol-1-yl)propan-2-yl)oxy)-4-chlorophenyl)pyrimidin-2-yl)amino)-5-methoxyindolin-1-yl)-2-morpholinoethan-1-one], the 50% inhibitory concentration (IC50) under setting [3] was at least 100 nM. With `C[C@@H](Cn1cnnn1)Oc1cc(-c2cnc(Nc3cc(N4CCN(C5CCOCC5)CC4)ncc3OC(F)(F)F)nc2)ccc1Cl` [Example 705, (S)-5-(3-((1-(1H-tetrazol-1-yl)propan-2-yl)oxy)-4-chlorophenyl)-N-(2-(4-(tetrahydro-2H-pyran-4-yl)piperazin-1-yl)-5-(trifluoromethoxy)pyridin-4-yl)pyrimidin-2-amine], under setting [4], the 50% inhibitory concentration (IC50) was below 10 nM. On to `COc1cc2c(cc1Nc1ncc(-c3ccc(Cl)c(O[C@@H](C)Cn4cnnn4)c3)cn1)CN(C(=O)COC(C)=O)CC2` [Example 519, (S)-2-(7-((5-(3-((1-(1H-tetrazol-1-yl)propan-2-yl)oxy)-4-chlorophenyl)pyrimidin-2-yl)amino)-6-methoxy-3,4-dihydroisoquinolin-2(1H)-yl)-2-oxoethyl acetate], for which, under setting [3], the IC50 was in the range of 10 to 100 nM.

Consider `CC(C)c1nn(C2CC3(C2)CN(C2COC2)C3)cc1Nc1ncc(-c2ccc(Cl)c(O[C@@H](C)Cn3cnnn3)c2)cn1` [Example 935, (S)-5-(3-((1-(1H-tetrazol-1-yl)propan-2-yl)oxy)-4-chlorophenyl)-N-(3-isopropyl-1-(2-(oxetan-3-yl)-2-azaspiro[3.3]heptan-6-yl)-1H-pyrazol-4-yl)pyrimidin-2-amine], for which, under setting [2], the IC50 is below 10 nM. With `COc1cc2c(cc1Nc1ncc(-c3ccc(Cl)c(O[C@@H](C)Cn4cnnn4)c3)cn1)CN(CCO)CC2` [Example 511, (S)-2-(7-((5-(3-((1-(1H-tetrazol-1-yl)propan-2-yl)oxy)-4-chlorophenyl)pyrimidin-2-yl)amino)-6-methoxy-3,4-dihydroisoquinolin-2(1H)-yl)ethan-1-ol], the half-maximal inhibitory concentration (IC50) under setting [3] is below 10 nM. In turn, `C[C@@H](Cn1cnnn1)Oc1cc(-c2cnc(Nc3cn(CCNC(=O)OC(C)(C)C)nc3C(F)(F)F)nc2)ccc1Cl` [Example 845, tert-butyl (S)-(2-(4-((5-(3-((1-(1H-tetrazol-1-yl)propan-2-yl)oxy)-4-chlorophenyl)pyrimidin-2-yl)amino)-3-(trifluoromethyl)-1H-pyrazol-1-yl)ethyl)carbamate] displayed an IC50 under setting [1] of 10 to 100 nM. For the compound `C[C@@H](Cn1cnnn1)Oc1cc(-c2cnc(Nc3cc(C4CCN(C5COC5)CC4)ccc3OC(F)(F)F)nc2)ccc1Cl` [Example 577, (S)-5-(3-((1-(1H-tetrazol-1-yl)propan-2-yl)oxy)-4-chlorophenyl)-N-(5-(1-(oxetan-3-yl)piperidin-4-yl)-2-(trifluoromethoxy)phenyl)pyrimidin-2-amine], the IC50 under setting [3] lay in the range of 10 to 100 nM. Compound `C[C@@H](Cn1cnnn1)Oc1cc(-c2cnc(Nc3cn(CCN)nc3C(F)(F)F)nc2)ccc1Cl` [Example 877, (S)-5-(3-((1-(1H-tetrazol-1-yl)propan-2-yl)oxy)-4-chlorophenyl)-N-(1-(2-aminoethyl)-3-(trifluoromethyl)-1H-pyrazol-4-yl)pyrimidin-2-amine] came in with an IC50 under setting [1] below 10 nM. With `COc1cc2c(cc1Nc1ncc(-c3ccc(Cl)c(O[C@@H](C)Cn4cnnn4)c3)cn1)CN(C1COC1)CCO2` [Example 454, (S)-N-(5-(3-((1-(1H-tetrazol-1-yl)propan-2-yl)oxy)-4-chlorophenyl)pyrimidin-2-yl)-8-methoxy-4-(oxetan-3-yl)-2,3,4,5-tetrahydrobenzo[f][1,4]oxazepin-7-amine], the half-inhibitory concentration (IC50) under setting [3] is at least 100 nM. Turning to `C#CCn1cc(Nc2ncc(-c3ccc(Cl)c(O[C@@H](C)Cn4cnnn4)c3)cn2)c(C(F)(F)F)n1` [Example 726, (S)-5-(3-((1-(1H-tetrazol-1-yl)propan-2-yl)oxy)-4-chlorophenyl)-N-(1-(prop-2-yn-1-yl)-3-(trifluoromethyl)-1H-pyrazol-4-yl)pyrimidin-2-amine], the IC50 under setting [4] was 10 to 100 nM. On the same count and under the same terms, to `C[C@@H](Cn1cnnn1)Oc1cc(-c2cnc(Nc3cn(C4CCN(C5COC5)C4)nc3C(F)(F)F)nc2)ccc1Cl` (stereo partly drawn) [Example 619, 5-(3-(((S)-1-(1H-tetrazol-1-yl)propan-2-yl)oxy)-4-chlorophenyl)-N-(1-(1-(oxetan-3-yl)pyrrolidin-3-yl)-3-(trifluoromethyl)-1H-pyrazol-4-yl)pyrimidin-2-amine] belongs 10 to 100 nM. Compound `C[C@@H](Cn1cnnn1)Oc1cc(-c2cnc(Nc3cn([C@H]4CC[C@@H](N5CCOCC5)CC4)nc3C(F)(F)F)nc2)ccc1F` [Example 807, 5-(3-(((S)-1-(1H-tetrazol-1-yl)propan-2-yl)oxy)-4-fluorophenyl)-N-(1-(cis-4-morpholinocyclohexyl)-3-(trifluoromethyl)-1H-pyrazol-4-yl)pyrimidin-2-amine] showed an IC50 under setting [1] of 10 to 100 nM.

For `C[C@@H](Cn1cnnn1)Oc1cc(-c2cnc(Nc3cn(C4CCN(C5CCOC(C)(C)C5)CC4)nc3C(F)(F)F)nc2)ccc1Cl` (stereo partly drawn) [Example 557, 5-(3-(((S)-1-(1H-tetrazol-1-yl)propan-2-yl)oxy)-4-chlorophenyl)-N-(1-(1-(2,2-dimethyltetrahydro-2H-pyran-4-yl)piperidin-4-yl)-3-(trifluoromethyl)-1H-pyrazol-4-yl)pyrimidin-2-amine], the IC50 under setting [3] was below 10 nM. Under setting [2], `C[C@@H](Cn1cnnn1)Oc1cc(-c2cnc(Nc3cn(C4CC5(C4)CN(C4COC4)C5)nc3OCC(F)(F)F)nc2)ccc1C(F)F` [Example 950, (S)-5-(3-((1-(1H-tetrazol-1-yl)propan-2-yl)oxy)-4-(difluoromethyl)phenyl)-N-(1-(2-(oxetan-3-yl)-2-azaspiro[3.3]heptan-6-yl)-3-(2,2,2-trifluoroethoxy)-1H-pyrazol-4-yl)pyrimidin-2-amine] registered an IC50 below 10 nM.

The compound `C[C@@H](Cn1cnnn1)Oc1cc(-c2cnc(Nc3cn(C4CC5(C4)CN(C4COC(C)(C)OC4)C5)nc3OCC(F)(F)F)nc2)ccc1Cl` [Example 932, (S)-5-(3-((1-(1H-tetrazol-1-yl)propan-2-yl)oxy)-4-chlorophenyl)-N-(1-(2-(2,2-dimethyl-1,3-dioxan-5-yl)-2-azaspiro[3.3]heptan-6-yl)-3-(2,2,2-trifluoroethoxy)-1H-pyrazol-4-yl)pyrimidin-2-amine] had a 50% inhibitory concentration (IC50) under setting [2] below 10 nM.

For the compound `COc1cc(C2CCCN(C3COC3)C2)ccc1Nc1ncc(-c2ccc(Cl)c(O[C@@H](C)Cn3cnnn3)c2)cn1` (stereo partly drawn) [Example 494, 5-(3-(((S)-1-(1H-tetrazol-1-yl)propan-2-yl)oxy)-4-chlorophenyl)-N-(2-methoxy-4-(1-(oxetan-3-yl)piperidin-3-yl)phenyl)pyrimidin-2-amine], the IC50 under setting [3] was below 10 nM.
